According to patent US20120273764A1, “COMPOSITION FOR ORGANIC PHOTOELECTRIC DEVICE, ORGANIC PHOTOELECTRIC DEVICE USING THE SAME, AND DISPLAY DEVICE INCLUDING THE SAME” (CHEIL INDUSTRIES, INC., priority 2009, published 2012):

Assay: Solubility evaluation in organic solvent
Format: physicochemical
Conditions: for Solubility Chlorobenzene / Solubility Toluene: 30 mg compound made up to 1.0 g solution, rolled at room temperature for 1 hour, 0.2 μm syringe filter
Method: An organic solvent was added to 30 mg of each compound, and mixed until the total weight of each solution became 1.0 g. The mixture was rolled at room temperature for 1 hour, and then filtered with a syringe filter (Acrodisc Company) whose average pore diameter was 0.2 μm. Herein, solubility and film-forming properties were compared based on CBP, which is a generally-used host compound.
(1) Solubility Evaluation Method: solubility was determined by removing the filtered solution of the solvent and measuring the mass of the remaining solid, and the result is shown in the following Table 1. […]

Compound	Solubility Chlorobenzene (chlorobenzene)	Solubility Toluene (toluene)	Solubility in chlorobenzene (in words) (chlorobenzene)	Solubility in toluene (in words) (toluene)
c1ccc(-c2nnc(-c3ccc(-c4ccc5c(c4)C4(c6ccccc6-c6ccccc64)c4ccccc4-5)cc3)o2)cc1 [Chem. Form. 43]	equal to 3 wt %	equal to 3 wt %		
c1ccc(-n2c3ccccc3c3ccc4c5ccccc5n(-c5ccccc5)c4c32)cc1 [Chem. Form. 38]	equal to 3 wt %	equal to 3 wt %		
c1ccc(-n2c3ccccc3c3c4c5ccccc5n(-c5ccccc5)c4ccc32)cc1 [Chem. Form. 20]	equal to 3 wt %	equal to 3 wt %		
c1cncc(-c2nnc(-c3cc(-c4ccc5c(c4)C4(c6ccccc6-c6ccccc64)c4ccccc4-5)cc(-c4ccc5c(c4)C4(c6ccccc6-c6ccccc64)c4ccccc4-5)c3)o2)c1 [Chem. Form. 44]	equal to 3 wt %	equal to 3 wt %		
c1ccc2c(c1)c1ccccc1n2-c1ccc(-c2ccc(-n3c4ccccc4c4ccccc43)cc2)cc1 [CBP, 4,4-N,N-dicarbazolebiphenyl, reference compound]	1 wt %	equal to 0.5 wt %	part of the CBP was dissolved	little CBP was dissolved
